# Source: patent US9441012B2, “Fluorinated epoxyketone-based compounds and uses thereof as proteasome inhibitors” (FLUORINOV PHARMA INC., priority 2012, dated 2016)
# What was measured:
# Test in all cases: NCI 60 human tumor cell line screen (SRB)
# Format in all cases: cell-based
# [1] = test system: MOLT-4; conditions: MOLT-4 (Leukemia); 48 h
# [2] = test system: NCI-H226; conditions: NCI-H226 (Non-Small Cell Lung Cancer); 48 h
# Description: (§1) Representative compounds of Formula I were screened using the National Cancer Institute (NCI) screening panel, which consists of a panel of 60 different human tumor cell lines, representing leukemia [CCRF-CEM, HL-60 (TB), K-562, MOLT-4, SR], melanoma [LOX IMVI, MALME-3M, M14, SMDA-MB-435, SK-MEL-2, SK-MEL-28, SK-MEL-5, UACC-257 and UACC-62] and cancers of the lung [A549/ATCC, EKVX, HOP-62, HOP-93, NCI-H226, NCI-H23, NCI-H322M, NCI-H460], colon [COLO 205, HCT-116, HCT-15, HT29, KM12, SW-620], brain [SF-268, SF-295, SF-539, SNB-19, SNB-75, U251], ovary [IGROV1, OVCAR-3, OVCAR-4, OVCAR-5, OVCAR-8, NCI/ADR-RES, SK-OV-3], breast [MCF7, MDA-MB-231, BT-549, T-47D, MDA-MB-468], prostate [PC-3, DU-145], and renal[786-0, A498, ACHN, CAKI-1, RXF-393, SN12C, TK-10, UO-31] cancers.
# (§2) After 24 h, two plates of each cell line are fixed in situ with TCA, to represent a measurement of the cell population for each cell line at the time of drug addition (Tz). Experimental drugs are solubilised in dimethyl sulfoxide at 400-fold the desired final maximum test concentration and stored frozen prior to use. At the time of drug addition, an aliquot of frozen concentrate is thawed and diluted to twice the desired final maximum test concentration with complete medium containing 50 μg/ml gentamicin. Additional four, 10-fold or ½ log serial dilutions are made to provide a total of five drug concentrations plus control. Aliquots of 100 μl of these different drug dilutions are added to the appropriate microtiter wells already containing 100 μl of medium, resulting in the required final drug concentrations.
# (§3) Following drug addition, the plates are incubated for an additional 48 h at 37° C., 5% CO2, 95% air, and 100% relative humidity. For adherent cells, the assay is terminated by the addition of cold TCA (trichloroacetic acid). Cells are fixed in situ by the gentle addition of 50 μl of cold 50% (w/v) TCA (final concentration, 10% TCA) and incubated for 60 minutes at 4° C. The supernatant is discarded, and the plates are washed five times with tap water and air dried. Sulforhodamine B (SRB) solution (100 μl) at 0.4% (w/v) in 1% acetic acid is added to each well, and plates are incubated for 10 minutes at room temperature. After staining, unbound dye is removed by washing five times with 1% acetic acid and the plates are air dried. Bound stain is subsequently solubilised with 10 mM trizma base, and the absorbance is read on an automated plate reader at a wavelength of 515 nm. For suspension cells, the methodology is the same except that the assay is terminated by fixing settled cells at the bottom of the wells by gently adding 50 μl of 80% TCA (final concentration, 16% TCA). Using the seven absorbance measurements [time zero, (Tz), control growth, (C), and test growth in the presence of drug at the five concentration levels (Ti)], the percentage growth is calculated at each of the drug concentration levels. Percentage growth inhibition is calculated as: [(Ti−Tz)/(C−Tz)]×100 for concentrations in which Ti>/=Tz and [(Ti−Tz)/Tz]×100 for concentrations in which Ti<Tz.
# (§4) Three dose response parameters are calculated for each experimental agent. Growth inhibition of 50% (GI50) is calculated from [(Ti−Tz)/(C−Tz)]100=50, which is the drug concentration resulting in a 50% reduction in the net protein increase (as measured by SRB staining) in control cells during the drug incubation. The drug concentration resulting in total growth inhibition (TGI) is calculated from Ti=Tz. The LC50 (concentration of drug resulting in a 50% reduction in the measured protein at the end of the drug treatment as compared to that at the beginning) indicating a net loss of cells following treatment is calculated from [(Ti−Tz)/Tz]×100=−50. Values are calculated for each of these three parameters if the level of activity is reached. However, if the effect is not reached or is exceeded, the value for that parameter is expressed as greater or less than the maximum or minimum concentration tested.
# [3] = test system: OVCAR-8; conditions: OVCAR-8 (Ovarian Cancer); 48 h
# Description: as §1, §2, §3, §4
# [4] = test system: SK-MEL-28; conditions: SK-MEL-28 (Melanoma); 48 h
# Description: as §1, §2, §3, §4
# [5] = test system: SK-MEL-5; conditions: SK-MEL-5 (Melanoma); 48 h
# Description: as §1, §2, §3, §4
# [6] = test system: SK-OV-3; conditions: SK-OV-3 (Ovarian Cancer); 48 h
# Description: as §1, §2, §3, §4
# [7] = test system: SR; conditions: SR (Leukemia); 48 h
# [8] = test system: HOP-62; conditions: HOP-62 (Non-Small Cell Lung Cancer); 48 h
# [9] = test system: NCI-H460; conditions: NCI-H460 (Non-Small Cell Lung Cancer); 48 h
# [10] = test system: NCI-H522; conditions: NCI-H522 (Non-Small Cell Lung Cancer); 48 h
# [11] = test system: T-47D; conditions: T-47D (Breast Cancer); 48 h
# [12] = test system: SK-MEL-2; conditions: SK-MEL-2 (Melanoma); 48 h
Structure (SMILES),Log10GI50 [1],Log10LC50 [1],Log10TGI50 [1],Log10GI50 [2],Log10TGI50 [2],Log10GI50 [3],Log10LC50 [3],Log10TGI50 [3],Log10GI50 [4],Log10LC50 [4],Log10TGI50 [4],Log10GI50 [5],Log10LC50 [5],Log10TGI50 [5],Log10GI50 [6],Log10TGI50 [6],Log10GI50 [7],Log10LC50 [7],Log10TGI50 [7],Log10GI50 [8],other results
"Cc1ncc(C(=O)N[C@@H](COC(F)F)C(=O)N[C@@H](COC(F)F)C(=O)N[C@@H](Cc2ccccc2)C(=O)[C@@]2(C)CO2)s1 [Example 1, 2-methyl-thiazole-5-carboxylic acid ((S)-1-{(S)-1-[(S)-1-benzyl-2-((R)-2-methyloxiranyl)-2-oxo-ethylcarbamoyl]-2-difluoromethoxyethylcarbamoyl}-2-difluoromethoxyethyl)-amide]",−7.37,>−4.00,>−4.00,−7.44,−6.84,−5.80,>−4.00,>−4.00,−6.85,−4.69,−6.12,−7.15,−5.47,−6.34,−6.06,>−4.00,−7.30,>−4.00,>−4.00,−6.41,Log10LC50 [6]: >−4.00; Log10LC50 [8]: >−4.00; Log10TGI50 [8]: >−4.00; Log10GI50 [9]: −6.48; Log10LC50 [9]: −5.12; Log10TGI50 [9]: −5.84; Log10GI50 [10]: −6.86; Log10LC50 [10]: −4.15; Log10TGI50 [10]: −6.15; Log10GI50 [11]: −6.59; Log10TGI50 [11]: >−4.00
"CC(C)C[C@H](NC(=O)[C@H](Cc1ccccc1)NC(=O)[C@H](COC(F)F)NC(=O)CN1CCOCC1)C(=O)[C@@]1(C)CO1 [Example 25, (2S)-2-[[(2S)-3-(difluoromethoxy)-2-[(2-morpholinoacetyl)amino]propanoyl]amino]-N-[(1S)-3-methyl-1-[(2R)-2-methyloxirane-2-carbonyl]butyl]-3-phenyl-propanamide]",−7.69,>−4.00,−7.11,−7.77,−7.43,−7.32,>−4.00,−6.41,−7.38,−4.82,−6.69,−7.60,−6.49,−7.17,−7.30,−6.60,−7.71,>−4.00,>−4.00,−7.75,Log10LC50 [2]: −7.10; Log10LC50 [8]: −7.09; Log10TGI50 [8]: −7.42; Log10GI50 [9]: −7.21; Log10LC50 [9]: −4.13; Log10TGI50 [9]: −6.43; Log10GI50 [10]: −7.67; Log10LC50 [10]: >−4.00; Log10TGI50 [10]: −7.19; Log10GI50 [12]: −7.54; Log10LC50 [12]: −5.46; Log10TGI50 [12]: −7.03; Log10GI50 [11]: −7.78; Log10TGI50 [11]: −7.46
"C[C@]1(C(=O)[C@H](Cc2ccccc2)NC(=O)[C@H](COC(F)F)NC(=O)[C@H](COC(F)F)NC(=O)CN2CCOCC2)CO1 [Example 26, (S)-N-{(S)-1-[(S)-1-Benzyl-2-((R)-2-methyl-oxiranyl)-2-oxo-ethylcarbamoyl]-2-difluoromethoxyethyl}-3-difluoromethoxy-2-(2-morpholin-4-yl-acetylamino)-propio-namide]",−7.69,>−4.00,−7.11,−7.77,−7.43,−7.32,>−4.00,−6.41,−7.38,−4.82,−6.69,−7.60,−6.49,−7.17,−7.30,−6.60,−7.71,>−4.00,>−4.00,−7.75,Log10LC50 [2]: −7.10; Log10LC50 [8]: −7.09; Log10TGI50 [8]: −7.42; Log10GI50 [9]: −7.21; Log10LC50 [9]: −4.13; Log10TGI50 [9]: −6.43; Log10GI50 [10]: −7.67; Log10LC50 [10]: >−4.00; Log10TGI50 [10]: −7.19; Log10GI50 [12]: −7.54; Log10LC50 [12]: −5.46; Log10TGI50 [12]: −7.03; Log10GI50 [11]: −7.78; Log10TGI50 [11]: −7.46
